In brackets after ≈: the same amount, converted by molar mass. Counter-ions that a name gives are not always drawn. Like-named read-outs stand apart in the source and are kept apart here.
Tests used:
S. aureus (ATCC29213) = assay: In vitro susceptibility, broth microdilution (MIC); format: cell-based; settings: Staphylococcus aureus
Outline: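 CLSI 2-fold serial broth microdilution; K. pneumoniae C238 grown in L-broth, S. aureus ATCC 29213 in Mueller Hinton broth, plates incubated 18–24 h at 37 °C. MIC taken as lowest concentration giving complete growth inhibition by OD600 versus compound-free wells, background-subtracted.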

MRSA (ATCC BAA-1762) = assay: In vitro susceptibility, broth microdilution (MIC); format: cell-based, methicillin resistant S. aureus; settings: Staphylococcus aureus, read-out: Antimicrobial activity (MIC) MRSA ATCC BAA1762
Source text: (§1) Epidemic methicillin resistant S. aureus (MRSA) strain sequenced at the Sanger Centre (MRSA252, NRS71) was obtained from NARSA (Network on Antimicrobial Resistance in S. aureus). Methicillin sensitive S. aureus (ATCC 29213 and 25923), methicillin resistant S. aureus (ATCC BAA-1762), and Salmonella typhimurium (ATCC BAA-185) were obtained from ATCC, The Global Bioresource Center. Acinetobacter baumannii (ATCC 19606 and ATCC 17978), Klebsiella pneumonia (C238), vancomycin resistant Enterococci #2 (2010A) (VRE#2), MRSA (USA400, MW2) and Pseudomonas aeruginosa (PA0-1) were obtained from the laboratory of Dr B. B. Finlay at the University of British Columbia (Vancouver, Canada).
(§2) The antimicrobial activities of PK inhibitor candidates were determined using the 96-well microtiter standard 2-fold serial broth microdilution method as described by CLSI (formerly NCCLS) with the various gram-positive and gram-negative bacteria species mentioned above. Bacteria from a single colony were grown, overnight in either BHI Broth (VRE), mueller hinton broth (S. aureus 29213; MRSA USA400, A. baumannii 19606, MRSA BAA-1762) or L-broth (P. aeruginosa, S. typhimurium, K. pneumonia and A. baumannii 17978). Each compound was prepared in DMSO with 2-fold serial dilutions to give a final concentration of, 0.031 to 64 μg/ml. 10 μl of the compound solution was then added, in duplicate, to either, 190 μl of cation adjusted mueller hinton broth (CAMHB) or 190 μl CAMHB containing ˜2.5×10^5 CFU/ml of bacteria (final compound concentration 0.031 to 64 μg/ml). Culture plates were incubated for 18-24 h at 37° C., and optical density at 600 nm (OD600) was measured using a Benchmark Plus™ microplate spectrophotometer (Bio-Rad™). The absorbance control values for the series containing CAMHB and inhibitor were subtracted as background from the corresponding infected wells. Minimal inhibitory concentration (MIC) was defined as the lowest concentration of test compound leading to complete inhibition of cell growth in relation to compound-free control wells as determined by optical density. Vancomycin, methicillin and ciprofloxicin were used as reference compounds. All assays were run in triplicate or duplicate. Experiments were replicated at least twice to verify reproducibility using the above conditions.

[1] = tested on: A. baumannii (ATCC 19606); assay: In vitro susceptibility, broth microdilution (MIC); format: cell-based; settings: Acinetobacter baumannii
Source text: as §1, §2

VRE#2 (2010A) = assay: In vitro susceptibility, broth microdilution (MIC); format: cell-based, vancomycin resistant Enterococci; settings: read-out: Antimicrobial activity (MIC) VRE#2
Source text: as §1, §2

MRSA Pyk = molecular target: T1, MRSA Pyk (Staphylococcus aureus, UniProt Q6GG09); assay: MRSA pyruvate kinase (PK) activity, continuous LDH-coupled assay; format: biochemical, methicillin resistant S. aureus (MRSA252)
T1 construct: made in house; host or cells: E. coli BL-21 (DE3)
Outline: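 His-tagged MRSA PK (strain Sanger 252) and human PK isoforms expressed in E. coli BL-21 (DE3) and Ni-NTA purified, used at 15 nM in an LDH-coupled assay following NADH oxidation at 340 nm, 30° C, up to 5 min, ≤1% DMSO. IC50 from four-parameter variable-slope fit; Ki with PEP 2-20 mM, ADP fixed 2 mM, inhibitor 0-400 nM.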

[2] = S. aureus ATCC29213, 18-24 h, 37 C, read-out: Antimicrobial activity (MIC) S. aureus ATCC29213
[3] = ATCC19606, A. baumannii ATCC 19606 (values without asterisk), read-out: Antimicrobial activity (MIC) A. baumannii

| MIC (S. aureus (ATCC29213); [2]) | MIC (MRSA (ATCC BAA-1762); MRSA ATCC BAA-1762) | MIC [1, 3] | MIC (VRE#2 (2010A); VRE#2 (2010A)) | SMILES | IC50 (MRSA Pyk) | MIC (S. aureus (ATCC29213); ATCC29213, read-out: Antimicrobial activity (MIC) S. aureus ATCC29213) | MIC (MRSA (ATCC BAA-1762)) | MIC ([1]; ATCC19606, read-out: Antimicrobial activity (MIC) A. baumannii) | MIC (VRE#2 (2010A)) |
| --- | --- | --- | --- | --- | --- | --- | --- | --- | --- |
| 16 µg/mL (≈ 48.7 µM) | 16 µg/mL (≈ 48.7 µM) | > 64 µg/mL | 32 µg/mL (≈ 97.5 µM) | CC(C)(C)NC(=O)Nc1nc2cc(Br)ccc2s1 [Compound 173, 1-(5-bromobenzo[d]thiazol-2-yl)-3-(tert-butyl)urea] |  |  |  |  |  |
| > 64 µg/mL |  | > 64 µg/mL | > 64 µg/mL | NC(=O)N1CCCN(CCNC(=O)c2c(-c3cc4cc(Cl)ccc4[nH]3)[nH]c3cc(Br)ccc23)CC1 [Compound 128, 6-bromo-N-(2-(4-carbamoyl-1,4-diazepan-1-yl)ethyl)-5′-chloro-1H,1′H-2,2′-biindole-3-carboxamide] |  |  |  |  |  |
| 1 µg/mL (≈ 3.11 µM) | 0.5 µg/mL (≈ 1.55 µM) | > 64 µg/mL | 0.5 µg/mL (≈ 1.55 µM) | O=C(Nc1ccc(Cl)cc1)Nc1nc2cc(F)ccc2s1 [Compound 166, 1-(4-chlorophenyl)-3-(5-fluorobenzo[d]thiazol-2-yl)urea] |  |  |  |  |  |
|  |  |  |  | C[N+](C)(C)CCCNC(=O)COc1cc2[nH]c(-c3cc4ccc(Br)cc4[nH]3)cc2cc1Cl [Compound 191, 3-(2-((6′-Bromo-5-chloro-1H,1′H-[2,2′-biindol]-6-yl)oxy)acetamido)-N,N,N-trimethylpropan-1-aminium Formate] | < 100 nM | 16 µg/mL | 16 µg/mL | > 64 µg/mL | 16 µg/mL |
| 1 µg/mL (≈ 2.72 µM) | 1 µg/mL (≈ 2.72 µM) | > 64 µg/mL | 1 µg/mL (≈ 2.72 µM) | O=C(Nc1nc2cc(Br)ccc2s1)NC1CCCCCC1 [Compound 174, 1-(5-bromobenzo[d]thiazol-2-yl)-3-cycloheptylurea] |  |  |  |  |  |
| 0.5 µg/mL (≈ 1.48 µM) | 0.5 µg/mL (≈ 1.48 µM) | > 64 µg/mL | 1 µg/mL (≈ 2.96 µM) | O=C(Nc1ccc(Cl)cc1)Nc1nc2cc(Cl)ccc2s1 [Compound 172, 1-(5-chlorobenzo[d]thiazol-2-yl)-3-(4-chlorophenyl)urea] |  |  |  |  |  |
| 4 µg/mL (≈ 11 µM) | 4 µg/mL (≈ 11 µM) | > 64 µg/mL | 8 µg/mL (≈ 22 µM) | Nc1ccc(NC(=O)Nc2nc3cc(Br)ccc3s2)cc1 [Compound 160, 1-(4-aminophenyl)-3-(5-bromobenzo[d]thiazol-2-yl)urea] |  |  |  |  |  |
| 1 µg/mL (≈ 2.53 µM) | 1 µg/mL (≈ 2.53 µM) | > 64 µg/mL | 16 µg/mL (≈ 40.4 µM) | O=C(Nc1ccc(Cl)cc1)Nc1nc2cc(Oc3ccccc3)ccc2s1 [Compound 168, 1-(4-chlorophenyl)-3-(5-phenoxybenzo[d]thiazol-2-yl)urea] |  |  |  |  |  |
| 2 µg/mL (≈ 5.65 µM) | 1 µg/mL (≈ 2.82 µM) | > 64 µg/mL |  | O=C(Nc1nc2cc(Br)ccc2s1)NC1CCCCC1 [Compound 159, 1-(5-bromobenzo[d]thiazol-2-yl)-3-cyclohexylurea] |  |  |  |  |  |
| 16 µg/mL (≈ 35.7 µM) | 8 µg/mL (≈ 17.8 µM) | > 64 µg/mL | 16 µg/mL (≈ 35.7 µM) | CN(C)CC(=O)Nc1ccc(NC(=O)Nc2nc3cc(Br)ccc3s2)cc1 [Compound 161, N-(4-(3-(5-bromobenzo[d]thiazol-2-yl)ureido)phenyl)-2-(dimethylamino)acetamide] |  |  |  |  |  |
| 1 µg/mL (≈ 2.69 µM) | 0.5 µg/mL (≈ 1.34 µM) | > 64 µg/mL | 2 µg/mL (≈ 5.38 µM) | O=C(Nc1ccc(Cl)cc1)Nc1nc2cc(C(F)(F)F)ccc2s1 [Compound 169, 1-(4-chlorophenyl)-3-(5-(trifluoromethyl)benzo[d]thiazol-2-yl)urea] |  |  |  |  |  |
| 8 µg/mL (≈ 26.7 µM) | 8 µg/mL (≈ 26.7 µM) | > 64 µg/mL | 16 µg/mL (≈ 53.3 µM) | CCNC(=O)Nc1nc2cc(Br)ccc2s1 [Compound 176, 1-(5-bromobenzo[d]thiazol-2-yl)-3-ethylurea] |  |  |  |  |  |

| SMILES | MIC (S. aureus (ATCC29213); [2]) | MIC (MRSA (ATCC BAA-1762); MRSA ATCC BAA-1762) | MIC [1, 3] | MIC (VRE#2 (2010A); VRE#2 (2010A)) | IC50 (MRSA Pyk) | MIC (S. aureus (ATCC29213); ATCC29213, read-out: Antimicrobial activity (MIC) S. aureus ATCC29213) | MIC (MRSA (ATCC BAA-1762)) | MIC ([1]; ATCC19606, read-out: Antimicrobial activity (MIC) A. baumannii) | MIC (VRE#2 (2010A)) |
| --- | --- | --- | --- | --- | --- | --- | --- | --- | --- |
| CN(C)CCON=C(c1c(-c2cc3cc(Cl)ccc3[nH]2)[nH]c2cc(Br)ccc12)C(F)(F)F (racemic) [Compound 220, 1-(6-Bromo-5′-chloro-1H,1′H-[2,2′-biindol]-3-yl)-2,2,2-trifluoroethan-1-one O-(2-(dimethylamino)ethyl)oxime] | 2 µg/mL (≈ 3.79 µM) | 2 µg/mL (≈ 3.79 µM) | > 64 µg/mL | 2 µg/mL (≈ 3.79 µM) | < 100 nM |  |  |  |  |
| CN(C)CCNCCNC(=O)c1c(-c2cc3cc(Cl)ccc3[nH]2)[nH]c2cc(Br)ccc12 [Compound 126, 6-Bromo-5′-chloro-N-(2-((2-(dimethylamino)ethyl)amino)ethyl)-1H,1′H-[2,2′-biindole]-3-carboxamide] | 16 µg/mL (≈ 31.8 µM) | 16 µg/mL (≈ 31.8 µM) | 32 µg/mL (≈ 63.6 µM) | 8 µg/mL (≈ 15.9 µM) | < 100 nM |  |  |  |  |
| C[n+]1ccccc1CCNC(=O)c1c(-c2cc3cc(Cl)ccc3[nH]2)[nH]c2cc(Br)ccc12 [Compound 150] | 16 µg/mL | 16 µg/mL | > 64 µg/mL | 32 µg/mL | < 100 nM |  |  |  |  |
| C[N+](C)(CCO/N=C(/c1c(-c2cc3cc(Cl)ccc3[nH]2)[nH]c2cc(Br)ccc12)C(F)(F)F)CC(=O)[O-] [Compound 223, 2-((2-(((1-(6-Bromo-5′-chloro-1H,1′H-[2,2′-biindol]-3-yl)-2,2,2-trifluoroethylidene)amino)oxy)ethyl)dimethylammonio)acetate] | 16 µg/mL (≈ 27.3 µM) | 8 µg/mL (≈ 13.7 µM) | > 64 µg/mL | 8 µg/mL (≈ 13.7 µM) | 100 to 1000 nM |  |  |  |  |
| CN(C)CC(=O)OCCCNC(=O)c1c(-c2cc3cc(Cl)ccc3[nH]2)[nH]c2cc(Br)ccc12 [Compound 184, 3-(6-Bromo-5′-chloro-1H, 1′H-[2,2′-biindole]-3-carboxamido)propyl Dimethylglycinate] | > 64 µg/mL | 16 µg/mL (≈ 30.1 µM) | > 64 µg/mL | > 64 µg/mL | < 100 nM |  |  |  |  |
| CN1CCCN(CCCNC(=O)c2c(-c3cc4cc(Cl)ccc4[nH]3)[nH]c3cc(Br)ccc23)CC1 [Compound 118, 6-Bromo-5′-chloro-N-(3-(4-methyl-1,4-diazepan-1-yl)propyl)-1H,1′H-[2,2′-biindole]-3-carboxamide] | 16 µg/mL (≈ 29.5 µM) | 16 µg/mL (≈ 29.5 µM) | 32 µg/mL (≈ 58.9 µM) | 8 µg/mL (≈ 14.7 µM) | < 100 nM |  |  |  |  |
| COc1cc2[nH]c(-c3[nH]c4cc(Br)ccc4c3C(=O)C(F)(F)F)cc2cc1Cl [Compound 200, 1-(6-Bromo-5′-chloro-6′-methoxy-1H, 1′H-[2,2′-biindol]-3-yl)-2,2,2-trifluoroethan-1-one] | 4 µg/mL (≈ 8.48 µM) | 1 µg/mL (≈ 2.12 µM) | > 64 µg/mL | 1 µg/mL (≈ 2.12 µM) | < 100 nM |  |  |  |  |
| CN(C)CC(=O)OCCOc1cc2[nH]c(-c3cc4ccc(Br)cc4[nH]3)cc2cc1Cl [Compound 197, 2-((6′-Bromo-5-chloro-1H,1′H-[2,2′-biindol]-6-yl)oxy)ethyl Dimethylglycinate] | 8 µg/mL (≈ 16.3 µM) | 8 µg/mL (≈ 16.3 µM) | > 64 µg/mL | 8 µg/mL (≈ 16.3 µM) | < 100 nM |  |  |  |  |
| CN1CCCN(CCCCNC(=O)c2c(-c3cc4cc(Cl)ccc4[nH]3)[nH]c3cc(Br)ccc23)CC1 [Compound 117, 6-Bromo-5′-chloro-N-(4-(4-methyl-1,4-diazepan-1-yl)butyl)-1H,1′H-[2,2′-biindole]-3-carboxamide] | 8 µg/mL (≈ 14.4 µM) | 8 µg/mL (≈ 14.4 µM) | 32 µg/mL (≈ 57.5 µM) | 8 µg/mL (≈ 14.4 µM) | < 100 nM |  |  |  |  |
| CC(C)(C)NCCNC(=O)COc1cc2[nH]c(-c3cc4ccc(Br)cc4[nH]3)cc2cc1Cl [Compound 193, 2-((6′-Bromo-5-chloro-1H,1′H-[2,2′-biindol]-6-yl)oxy)-N-(2-(tert-butylamino)ethyl)acetamide] | > 64 µg/mL |  | > 64 µg/mL |  | < 100 nM |  |  |  |  |

Reference: patent publication US20180312493A1, “Antibiotic Compounds, Pharmaceutical Formulations Thereof And Methods And Uses Therefor” (Simon Fraser University, priority 2015, published 2018)
